{"source": "paper PMC11984905", "about": "“Chiral Switch of Gadopiclenol: New Standards in MRI Probes” (Advanced Science, 2025)", "key": {"[1]": {"test": "1H NMRD profiles and 17O NMR relaxometry in water", "assay_type": "physicochemical", "details": "for ^298K r 1 [1.5 T] / r 1 ^310K [1.5 T]: water; for ER / q: fixed in the fitting procedure; for q: number of coordinated water molecules; for τ M1: residence time of coordinated water 1, 298 K; for τ M2: residence time of coordinated water 2, 298 K; for ^SS q: second-sphere water molecules at 3.6 Å; for ^298K r 1 [1.5 T] / ^SS q: 298 K", "protocol": "(§1) The magnetic‐field dependence of the longitudinal relaxation rate of water protons (^1H NMRD) were measured in aqueous solution by using a variable field relaxometer equipped with an HTS‐110 3T Metrology Cryogen‐free Superconducting Magnet (Mede, Italy), operating in the overall range of proton Larmor frequencies of 20–120 MHz (0.47–3.00 T). The measurements were performed using the standard inversion recovery sequence (20 experiments, 3 scans) with a 90° pulse width of 3.5 µs. The temperature was controlled with a Stelar VTC‐91 heater airflow. Additional points in the 0.01–10 MHz frequency range were collected on a Fast‐Field Cycling (FFC) Stelar SmarTracer Relaxometer. T 1 values at 500 MHz were collected on a Bruker Avance III NMR spectrometer operating at 11.7 T. The concentration of Gd^3+ in the solutions was determined by using bulk magnetic susceptibility (BMS) shift measurements performed at 11.7 T. For the measurements in the biological fluid, lyophilized plasma matrix (Siemens Healthcare) was added to 1 mL of [Gd(ent‐L2)] (1.0 mM) or Seronorm (Sero) was solubilized in 5 mL [Gd(ent‐L2)] (1.0 mM) solution. ^1H NMRD of the final solution was measured at 310 K.\nThe spectra were acquired on a Bruker Avance III spectrometer (11.7 T) using a 5 mm probe under temperature control. An aqueous solution of the complexes ([GdL] = 10–15 mM) was enriched to ca. 2.0% of the ^17O isotope (Cambridge Isotope). The transverse relaxation rates (R 2) were measured as a function of temperature in the 278−350 K range. The simultaneous fit of ^1H NMRD and ^17O NMR profiles data was performed using the Micromath Scientist software (version 2.0, Salt Lake City, UT, USA)."}, "[2]": {"details": "Eu^3+ complex, 0.1 M Me4NCl, 25 °C, cited from earlier work"}, "[3]": {"test": "Relaxivity (NMRD) in saline solution, human plasma and Seronorm at 310 K", "assay_type": "physicochemical", "protocol": "as §1"}, "[4]": {"test": "Biodistribution and in vivo dynamic T1-weighted MRI", "design": "species or system A/J healthy mice", "details": "0.1 mmol Gd/kg i.v.", "protocol": "Dynamic T 1‐weighted MRI on twelve A/J healthy mice was used to compare the biodistribution of ([Gd(ent‐L2)] and [Gd(BT‐DO3A)] (Gadovist), n = 6 animals each), administered at 0.1 mmol Gd/kg. The MRI monitored the distribution within abdominal tissues for up to 1 h post‐administration MRI images and the pharmacokinetic curves are shown in Figure 6 .\nAll the procedures and the experiments were conducted according to the national and international laws on experimental animal research (L.D. 26/2014; Directive 2010/63/EU) and under a specific Italian Ministerial Authorization (project research number 46/2015‐PR). Twelve A/J healthy mice (females, 6–7 weeks old, supplied by Envigo RMS S.r.l.) were housed in a controlled environment (22°C, 55% humidity, 15–20 air changes/hour, 12‐h light/dark cycle) with ad libitum access to VRF1 (P) certified pellets and filtered water. To minimize discomfort, the animals were socially housed with enrichment items. Veterinary care was available throughout the study to alleviate any potential pain or distress following procedures. […] The animals were randomly assigned to two experimental groups (n = 6 each, with sample size confirmed via GPower) and underwent to Magnetic Resonance Imaging (MRI) experiments performed using a BioSpec 47/30 preclinical scanner (Bruker Biospin, Ettlingen, Germany) operating at […] (i.e., at a proton Larmor frequency of 125 MHz) and equipped with two‐channel 35 mm RF volume coil. During MRI experiments, all the animals were anaesthetized with isoflurane gas (≈1%) in O2. Anaesthesia was maintained by adjustment of gas level as a function of breath rate. Before injection of each test article, T 1‐weighted spin echo sequences were acquired on the animal in order to check the position of the animal. A series of T 1‐weighted 3D gradient echoscans (repetition time = 50 ms, flip angle = 50°, echo time = 2.8 ms, number of averages = 2, matrix size (3D) = 192 × 192 × 8, field of view = 2.5 × 2.5 × 1.2 cm, acquisition time = 154 s) were then acquired before and after the intravenous administration of a 50 mM saline solution (0.9%) of [Gd(ent‐L2)] (n = 6 mice) and [Gd(BT‐DO3A)] (Gadovist, Bayer Schering, Germany) (n = 6 mice) at an injection rate of ≈2 mL/min through a catheter placed in the tail vein of the animal. Both [Gd(ent‐L2)] and [Gd(BT‐DO3A)] were administered at a dose of 0.1 mmol Gd/kg corresponding to an administration volume of 2 mL kg^−1. The kinetics of the Gd(III)‐complexes was followed up to 60 min post‐injection. After imaging was performed, the mouse was removed from the scanner and returned to the Animal Facility room. At the end of the study all animals were sacrificed by overdose of anaesthesia and cervical dislocation. Unblinded image analysis was performed by positioning the region of interest (ROIs) over liver, kidney, muscle, and blood vessel. ROIs positioning and signal quantification was performed by using a home‐developed plugin, running on Image J.^[ [51] ^]\nSignal enhancement (Enh) was calculated using the formula: Enh = 100×(SignalpostCA ‐SignalpreCA)/SignalpreCA, where SignalpreCA and SignalpostCA denote the MR signal before and after administration of contrast agents, respectively. Data were presented as mean ± standard deviation (SD). The sample size (n = 6 per group) was determined a priori using GPower software to ensure adequate statistical power. The Levene's test was employed to assess the homogeneity of variances among groups. For comparisons where homogeneity of variance was confirmed, a one‐way ANalysis Of VAriance (ANOVA) was applied to test the null hypothesis that treatment groups originate from the same distribution. Post‐hoc pairwise multiple comparisons were performed using Tukey's method when significant differences were detected. Statistical analyses and data visualization were conducted using Mathematica (Wolfram, USA), while summary statistics (mean, SD, and standard error) were calculated using Microsoft Excel (USA). […]"}}, "note": "Several values for one entry are separate records, joined by “and”; a condition that tells them apart may be missing. Identical values can stand only once. Marks after values point to notes of the source that are not given here."}
{"smiles": "O=C([O-])CCC(C(=O)[O-])N1CCN(C(CCC(=O)[O-])C(=O)[O-])Cc2cccc(n2)CN(C(CCC(=O)[O-])C(=O)[O-])CC1.[Gd+3]", "note": "(racemic) [[Gd(ent‐L1)]^3−]", "values": [{"measurement": "r 1 difference between [Gd(rac-L1)]3− and [Gd(ent-L1)]3−", "setting": "[1]", "value": 18, "unit": "%"}, {"measurement": "^298K r 1 [1.5 T]", "setting": "[1]", "value": 10.9, "unit": "mM⁻¹ s⁻¹"}, {"measurement": "r 1 ^310K [1.5 T]", "setting": "[1]", "value": 8.6, "unit": "mM⁻¹ s⁻¹"}, {"measurement": "τ R", "setting": "[1]; Table 2", "value": "96 ± 3", "unit": "ps"}, {"measurement": "τ R", "setting": "[1]; Table S20, 298 K", "value": "96±3", "unit": "ps"}, {"measurement": "ER", "setting": "[1]", "value": "22^b) kJ mol^-1"}, {"measurement": "q", "setting": "[1]", "value": 2}, {"measurement": "q", "setting": "[1]; listed as [Gd(ent-L1)]^3-", "value": "2^b)"}, {"measurement": "τ M1", "setting": "[1]", "value": "144 ± 4", "unit": "ns"}, {"measurement": "τ M2", "setting": "[1]", "value": "58 ± 5", "unit": "ns"}, {"measurement": "^SS q", "setting": "[1]", "value": "2.5 ± 0.1"}, {"measurement": "^SS q", "setting": "[1]; listed as [Gd(ent‐L1)]^3⁻", "value": 2.5}]}
{"smiles": "O=C(O)CCC(C(=O)O)N1CCN(C(CCC(=O)O)C(=O)O)Cc2cccc(n2)CN(C(CCC(=O)O)C(=O)O)CC1", "note": "(racemic) [rac‐L1, 2,2’,2’’-[3,6,9,15-tetraazabicyclo[9.3.1]pentadeca-1(15),11,13-triene-3,6,9-triyl]tripentanedioic acid]", "values": [{"measurement": "pGd (Eu^3+)", "setting": "[2]; 1 µM metal, 10 µM L, pH 7.4", "value": 16.06}, {"measurement": "logK GdL (Eu^3+)", "setting": "[2]", "value": 18.66}, {"measurement": "logKGdH2L (Eu^3+)", "setting": "[2]", "value": 4.54}, {"measurement": "logKGdH3L (Eu^3+)", "setting": "[2]", "value": 4.12}, {"measurement": "logKGdHL (Eu^3+)", "setting": "[2]", "value": 5.34}, {"measurement": "logK^c GdL (Eu^3+)", "setting": "[2]; pH 7.4", "value": 15.10}]}
{"smiles": "O=C(CCC(C(=O)[O-])N1CCN(C(CCC(=O)NCC(O)CO)C(=O)[O-])Cc2cccc(n2)CN(C(CCC(=O)NCC(O)CO)C(=O)[O-])CC1)NCC(O)CO.[Gd+3]", "note": "(stereo not drawn) [[Gd(ent‐L2)]]", "values": [{"measurement": "r 1 higher than [Gd(PCTA)]", "setting": "[1]", "value": 175, "unit": "%"}, {"measurement": "r 1 increase compared to [Gd(DOTA)]−", "setting": "[1]", "value": 309, "unit": "%"}, {"measurement": "relaxivity, times higher than that of currently used GBCAs", "setting": "[1]", "value": "2 to 3", "unit": "times"}, {"measurement": "^298K r 1 [1.5 T]", "setting": "[1]", "value": 16.5, "unit": "mM⁻¹ s⁻¹"}, {"measurement": "r 1 ^310K [1.5 T]", "setting": "[1]", "value": 12.6, "unit": "mM⁻¹ s⁻¹"}, {"measurement": "τ R", "setting": "[1]; Table 2", "value": "127 ± 4", "unit": "ps"}, {"measurement": "τ R", "setting": "[1]; Table S20, 298 K", "value": "127±4", "unit": "ps"}, {"measurement": "ER", "setting": "[1]", "value": "22^b) kJ mol^-1"}, {"measurement": "q", "setting": "[1]", "value": 2}, {"measurement": "q", "setting": "[1]; listed as [Gd(ent-L2)]", "value": "2^b"}, {"measurement": "τ M1", "setting": "[1]", "value": "155 ± 3", "unit": "ns"}, {"measurement": "τ M2", "setting": "[1]", "value": "77 ± 5", "unit": "ns"}, {"measurement": "^SS q", "setting": "[1]", "value": "4.5 and 4.5 ± 0.2"}, {"measurement": "plasma protein binding", "setting": "[3]", "value": "lack of plasma protein binding"}, {"measurement": "r1", "setting": "[3]; 0.47 T, human plasma, 310 K", "value": "13.6 ± 0.1", "unit": "mM⁻¹ s⁻¹"}, {"measurement": "r1", "setting": "[3]; 0.47 T, saline solution, 310 K", "value": "12.6 ± 0.1", "unit": "mM⁻¹ s⁻¹"}, {"measurement": "r1", "setting": "[3]; 1.41 T, human plasma, 310 K", "value": "13.4 ± 0.2", "unit": "mM⁻¹ s⁻¹"}, {"measurement": "r1", "setting": "[3]; 1.41 T, saline solution, 310 K", "value": "12.6 ± 0.1", "unit": "mM⁻¹ s⁻¹"}, {"measurement": "r1", "setting": "[3]; 3 T, human plasma, 310 K", "value": "13.1 ± 0.2", "unit": "mM⁻¹ s⁻¹"}, {"measurement": "r1", "setting": "[3]; 3 T, saline solution, 310 K", "value": "12.4 ± 0.1", "unit": "mM⁻¹ s⁻¹"}, {"measurement": "r 1 relative to that of [Gd(BT-DO3A)] (Gadovist)", "setting": "[3]; 37 °C and 3 T", "value": "more than two times higher"}, {"measurement": "change in relaxivity (NMRD profile) in human plasma and in Seronorm", "setting": "[3]; 310 K, vs water", "value": "negligible changes in relaxivity"}, {"measurement": "elimination pathway", "setting": "[4]", "value": "renal elimination remains the primary pathway"}, {"measurement": "average maximum signal enhancement in the liver", "setting": "[4]; 3 T, n = 6", "value": "≈ 210%"}, {"measurement": "wash-in and wash-out kinetics", "setting": "[4]; up to 1 h post-administration", "value": "rapid wash‐in and wash‐out"}, {"measurement": "maximum signal enhancement in the blood compartment, times higher than that of [Gd(BT-DO3A)]", "setting": "[4]; same dose, 3 T, significance level 0.1%", "value": "≈ 2 times"}, {"measurement": "decrease in signal enhancement in the blood compartment", "setting": "[4]; within 30 min, 3 T", "value": "≥ 50", "unit": "%"}]}
